Data taken from patent publication US10865204B2, “Degradation of cyclin-dependent kinase 4/6 (CDK4/6) by conjugation of CDK4/6 inhibitors with E3 ligase ligand and methods of use” (Dana-Farber Cancer Institute, Inc., priority 2016, dated 2020).

Tests used:
CDK4 [1] = molecular target: T1, CDK4 (Homo sapiens, UniProt P11802); test: Enzyme degradation assay (western blot), Jurkat cells, CDK4; type: cell-based; parameters: levels of CDK4, CDK6, and tubulin in wild-type (WT) or cereblon knockout (CRBN−/−) Molt4 cells; endogenous in cells; conditions: 5 μM, various time points, FIG. 1
T1 sequence (P11802 whole entry): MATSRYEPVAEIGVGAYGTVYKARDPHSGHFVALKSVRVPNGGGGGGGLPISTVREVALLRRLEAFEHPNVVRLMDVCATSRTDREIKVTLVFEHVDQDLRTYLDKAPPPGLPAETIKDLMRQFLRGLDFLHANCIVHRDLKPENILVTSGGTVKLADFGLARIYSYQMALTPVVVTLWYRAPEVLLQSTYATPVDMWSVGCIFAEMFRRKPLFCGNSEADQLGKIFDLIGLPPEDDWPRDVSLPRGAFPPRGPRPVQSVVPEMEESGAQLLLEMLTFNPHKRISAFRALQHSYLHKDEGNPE
Source text: (§1) Lysates are then cleared by centrifugation.
(§2) Lysates were then cleared by centrifugation.

CDK4 [2] = molecular target: T1, CDK4; test: Enzyme degradation assay (western blot), Molt4 wild-type cells, CDK4; type: cell-based; parameters: levels of CDK4, CDK6, and tubulin in wild-type (WT) or cereblon knockout (CRBN−/−) Molt4 cells; endogenous in cells; host or cells: Molt4 cells, wild-type or cereblon knockout (CRBN-/-); conditions: wild-type (WT) Molt4 cells, various concentrations, FIG. 2
Source text: as §1, §2

levels of CDK4 (western blot) (CDK4 [1]): unaffected | levels of CDK4 (western blot) (CDK4 [2]): unaffected
SMILES: CC(=O)c1c(C)c2cnc(Nc3ccc(N4CCN(CC(=O)NCCOCCOCCOCCNc5cccc6c5C(=O)N(C5CCC(=O)NC5=O)C6=O)CC4)cn3)nc2n(C2CCCC2)c1=O (centres unmarked) [Compound I-3, 2-(4-(6-((6-acetyl-8-cyclopentyl-5-methyl-7-oxo-7,8-dihydropyrido[2,3-d]pyrimidin-2-yl)amino)pyridin-3-yl)piperazin-1-yl)-N-(2-(2-(2-(2-((2-(2,6-dioxopiperidin-3-yl)-1,3-dioxoisoindolin-4-yl)amino)ethoxy)ethoxy)ethoxy)ethyl)acetamide]
